According to patent US20170296568A1, “SIRTUIN GENE POTENTIATOR, AND PHARMACEUTICAL PRODUCT, COSMETIC PRODUCT, AND FOOD PRODUCT USING SAME” (MORISHITA JINTAN CO., LTD., priority 2012, published 2017):

system: hSIRT1 promoter; test: Screening for SIRT1 enhancing polyphenol or terpenoid: hSIRT1 promoter activity (EGFP fluorescence) in Caco-2-hSIRT1p-EGFP cells; type: cell-based, human; conditions: 10 μM, 2 days after addition, relative ratio to control (PBS), FIG. 1
From the text: First, the promoter region (−1593 to −1 bp) of hSIRT1 (human SIRT1) was acquired using the LA-PCR method using, as a template, a human genome DNA extracted from TIG-1 cells (obtained from Institute of Development, Aging and Cancer, Tohoku University), with primers synthesized based on reported information of the hSIRT1 genomic sequence so as to synthesize primers having added AseI and NheI recognition sequences at their respective ends (hSIRT1p-AseI (SEQ ID NO: 1) and hSIRT1p-NheI (SEQ ID NO: 2)). The PCR reaction condition was at 94° C. for 1 minute, followed by at 98° C. for 20 seconds; and at 68° C. for 2 minutes, 34 cycles; and then at 72° C. for 10 minutes for extension reaction. LA-Taq from Takara Shuzo Co., Ltd. was used as the TaqDNApolymerase. The primers were synthesized by Nippon EGT based on our request.
The hSIRT1 promoter fragment obtained by the LA-PCR was subjected to TA cloning using a pGEM-T Easy vector (manufactured by Promega KK). Furthermore, the base sequence thereof was confirmed by sequencing. The hSIRT1 promoter fragment, inserted into the pGEM-T Easy vector, was cut out by digestion with the restriction enzymes AseI and NheI, and the CMV promoter of a pEGFP-C3 (manufactured by Takara Bio Inc.) was removed by digestion with AseI and NheI in a similar manner, and the hSIRT1 promoter fragment was inserted into that removed site, so that phSIRT1p-EGFP was obtained.
Transfection was performed using a LIPOFECT AMINE 2000 REAGENT (manufactured by Life Technologies) according to its protocol. On the day before the transfection, Caco-2 cells (human colonic cancer-derived cells obtained from Riken BioResource Center) were plated at 1.0×10^6 in a 10-mL dish. On the day of the transfection, phSIRT1p-EGFP (10 μg) was diluted in a serum-free OPTI-MEM medium to a volume of 750 μL, after which 15 μL of LIPOFECT AMINE Reagent was diluted in a serum-free OPTI-MEM medium to […], and they were incubated at room temperature for 5 minutes. The transfection using the LIPOFECT AMINE Reagent was performed in the absence of serum, during which the culture medium of the Caco-2 cells plated on the previous day was removed, and was replaced by 5 mL of serum-free OPTI-MEM medium. After 30 minutes of this, 1.5 mL of DNA-LIPOFECT AMINE 2000 mixture was added to each 10-mL dish. After the addition, the dish was gently shaken to mix the DNA-LIPOFECT AMINE and the OPTI-MEM. After the culture for 3 hours, the DNA-LIPOFECT AMINE mixture solution was removed, and the medium was replaced by a serum-containing culture medium. Subsequently, culture was performed under the environment at 5% CO2/95% air and 37° C. for 21 hours, and the culture medium was replaced by a new one.
Since phSIRT1p-EGFP is resistant to the drug G418, the drug G418 was added to the transfected cells to 70 μg/mL to subject them to the drug selection for a week. The culture medium was replaced by a new one every three days, and G418 was added every time at the same concentration. Accordingly, Caco-2-hSIRT1p-EGFP cells were obtained.
Caco-2-hSIRT1p-EGFP cells were plated at 0.6×10^4 cells/well in a 96-well plate. On the next day, 10 μM polyphenol or terpenoid, or control (PBS) was added to each well. At 2 days after the addition, the culture solution was aspirated, after which 100 μL of 4% paraformaldehyde was added to each well, and the plate was allowed to stand at room temperature for 10 minutes. After the plate was allowed to stand for 10 minutes, 4% paraformaldehyde was aspirated, 100 μL of Cellstain (registered trademark)-Hoechst 33342 solution (Dojindo) diluted 1/500 with PBS was added to each well, and the plate was allowed to stand at room temperature in the dark for 15 minutes and the solution was then aspirated. Then, 100 μL of PBS was added to each well, and the fluorescence intensity was measured using an IN Cell Analyzer 1000 (GE Healthcare, Amersham Place, UK). The promoter activity was represented by a relative ratio to the activity of the control.

Row | Compound | relative hSIRT1 promoter activity
1 | O=C1OC[C@H]2OC(O)[C@H](O)[C@@H](O)[C@@H]2OC(=O)c2cc(O)c(O)c(O)c2-c2c(O)c(O)c3oc(=O)c4c(c(O)c(O)c5oc(=O)c2c3c54)-c2c1cc(O)c(O)c2O (mixture of isomers) [punicalin] | particularly strong hSIRT1 promoter enhancing activity
2 | C[C@@]12C=Cc3occc3[C@H]1CC[C@@]13C[C@@H](CC[C@H]12)[C@@](O)(CO)C3 [kahweol] | particularly strong hSIRT1 promoter enhancing activity
3 | O=c1oc2cc(O)ccc2c2ccc(O)cc12 [urolithin A] | particularly strong hSIRT1 promoter enhancing activity
4 | O=c1c(O)c(-c2ccc(O)c(O)c2)oc2cc(O)ccc12 [fisetin] | particularly strong hSIRT1 promoter enhancing activity
5 | O=C1O[C@H]2[C@@H]3OC(=O)c4cc(O)c(O)c(O)c4-c4c(O)c(O)c5oc(=O)c6c(c(O)c(O)c7oc(=O)c4c5c76)-c4c(cc(O)c(O)c4O)C(=O)OC[C@H]3OC(O)[C@@H]2OC(=O)c2cc(O)c(O)c(O)c2-c2c1cc(O)c(O)c2O (mixture of isomers) [punicalagin] | particularly strong hSIRT1 promoter enhancing activity
